The Ki is the dissociation constant of the complex between target and ligand, obtained from inhibition or displacement.

Here are results for five compounds from patent US6096747A, “Phenylaminocarbonyl derivatives and processes for their preparation” (Celltech Therapeutics Limited, priority 1992, dated 2000).

In one data set the test system is PDE IV. Briefly: Isolated enzyme PDE IV inhibition (HL60 cells). Format: biochemical. Particulars: Ki PDE IV HL60 at (1 μM); pH 7.5, 30° C.; read-out: approximate Ki, PDE IV HL60. Here is the method:
The potency and selectivity of the compounds of the invention was determined using a battery of distinct PDE isoenzymes as follows:
The enzymes were purified to kinetic homogeneity using standard chromatographic techniques.
Phosphodiesterase activity was assayed as follows. The reaction was conducted in 150 μl of standard mixture containing (final concentrations): 50 mM TES-NaOH buffer (pH 7.5), 10 mM MgCl2, 0.1 μM [^3 H]-cAMP and vehicle or various concentrations of the test compounds. The reaction was initiated by addition of enzyme and conducted at 30° C. for between 5 to 30 mins. The reaction was terminated by addition of 50 μl 2% trifluoroacetic acid containing [^14 C]-5'AMP for determining recovery of the product. An aliquot of the sample was then applied to a column of neutral alumina and the [^3 H]-cAMP eluted with 10 ml 0.1 TES-NaOH buffer (pH8). The [^3 H]-5'-AMP product was eluted with 2 ml 2M NaOH into a scintillation vial containing 10 ml of scintillation cocktail. Recovery of [^3 H]-5'AMP was determined using the [^14 C]-5'AMP and all assays were conducted in the linear range of the reaction.

Another data set relates to papillary muscle. Particulars: selective PDE IV / PDE III reference inhibitors; background statement; cited from earlier work.
Another data set has as its system right atrial muscle. Particulars: selective PDE IV / PDE III reference inhibitors; background statement; cited from earlier work.
For data set [1] the following is noted: non-specific PDE inhibitor; cited from earlier work.

As for `COc1ccc(NC(=O)c2ccccc2)cc1OC1CCCC1` [Example 1, N-Benzoyl-3-cyclopentyloxy-4-methyloxyaniline], the Ki with PDE IV was approximately 391 nM.
On the same count and under the same terms, as for `COc1ccc(NC(=O)c2ccccc2[N+](=O)[O-])cc1OC1CCCC1` [Example 3, 3-Cyclopentyloxy-4-methyloxy-N-(2-Nitrobenzoyl)aniline], the figure is approximately 179 nM.
In the case of `Cc1[nH]c(=O)c(C#N)cc1-c1ccncc1` [milrinone], the “direct effects on papillary muscle (inotropic), reference inhibitors” value in the data set with papillary muscle was “positive chronotropic and inotropic effects”. In the data set with right atrial muscle, the “direct effects on atria (chronotropic), reference inhibitors” value is “positive chronotropic and inotropic effects”.
Regarding `COc1ccc(C2CNC(=O)C2)cc1OC1CCCC1` (stereo not shown) [rolipram], the “direct effects on papillary muscle (inotropic), reference inhibitors” value in the data set with papillary muscle was “do not have any direct effects”. Also, the “direct effects on atria (chronotropic), reference inhibitors” value in the data set on right atrial muscle is listed as “do not have any direct effects”.
For the compound `Cn1c(=O)c2[nH]cnc2n(C)c1=O` [theophylline], in data set [1], the cardiovascular changes result is recorded as “significant cardiovascular changes such as tachycardia”.
